What was measured:
[1] = tested on: mice; experiment: Preliminary toxicity testing on animals; type: in vivo
Procedure: To test for toxicity of MPs for mammalian cells, semiconfluent monolayers of four cell lines (MRC-5 primary human fibroblasts, Vero cells, MDCK cells and CaCO-2 cells) were incubated for 24 to 48 hours in the presence of 5, 25, 50, 250 and 400 μg/ml of Ga-PPIX dissolved in 0.02 M NaOH.
Two mice were each injected intraperitoneally with 0.5 mg gallium protoporphyrin IX and observed for 7 days. […] The animals were sacrificed, and their internal organs were microscopically examined for signs of inflammation.

[2] = tested on: C. freundii; experiment: Disc diffusion sensitivity test; type: cell-based, Citrobacter freundii
[3] = tested on: B. subtilis; experiment: Disc diffusion sensitivity test; type: cell-based, Bacillus subtilis; conditions: B. subtilis; disc ~50 μg MP
[4] = tested on: Neisseria meningitidis; experiment: Minimal inhibitory concentration; type: cell-based
[5] = tested on: S. aureus; experiment: Minimal bactericidal concentration; type: cell-based, Staphylococcus aureus; conditions: reduces plating efficiency more than 99.9%; minimal exposure to light
Summary of the method: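 Bacteria exposed to porphyrin derivatives above MIC as in the MIC assay, then plated on LB or LB+Tween 80 agar. MBC taken as the concentration reducing plating efficiency by more than 99.9%; light exposure kept minimal.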

[6] = tested on: Staphylococcus xylolus; experiment: Disc diffusion sensitivity test; type: cell-based; conditions: 50 μg disc
[7] = tested on: Y. enterocolitica; experiment: Minimal bactericidal concentration; type: cell-based; conditions: reduces plating efficiency more than 99.9%; minimal exposure to light
[8] = tested on: M tuber. H37Pa; experiment: Disc diffusion sensitivity test; type: cell-based, Mycobacterium tuberculosis; conditions: disc ~50 μg MP
[9] = tested on: M. smegmatis
[10] = tested on: S. crevisieae; experiment: Disc diffusion sensitivity test; type: cell-based, Saccharomyces cerevisiae; conditions: S. cerevisiae; disc ~50 μg MP
[11] = tested on: S. aureus
[12] = tested on: P. mirabills; experiment: Disc diffusion sensitivity test; type: cell-based, Proteus mirabilis
[13] = tested on: K. pneumoniae; experiment: Disc diffusion sensitivity test; type: cell-based, Klebsiella pneumoniae
[14] = tested on: Vero cells; experiment: Toxicity to mammalian cell monolayers; conditions: 0.5 mg in 1 mL DMEM; 24 hrs
[15] = tested on: Streptococcus pyogenes JRS4; type: cell-based
[16] = tested on: Bacillus subtilis; experiment: Minimal inhibitory concentration; type: cell-based
[17] = tested on: S. aureus; experiment: Disc diffusion sensitivity test; type: cell-based, Staphylococcus aureus
[18] = tested on: Staphylococcus carnosus; experiment: Disc diffusion sensitivity test; type: cell-based; conditions: 50 μg disc

SMILES: C=CC1=C(C)C2=Cc3c(C=C)c(C)c4[n]3[Ga][n]3c(c(C)c(CCC(=O)O)c3=CC3=NC(=C4)C(C)=C3CCC(=O)O)=CC1=N2 [Ga-PPIX, Gallium (III) protoporphyrin IX chloride]
- behavior, eating habits, stress, general condition ([1]; 0.5 mg intraperitoneally, 7 days): No change in behavior, eating habits and/or apparent stress or general condition were recorded
- inflammation of internal organs ([1]; 0.5 mg intraperitoneally, 7 days, microscopy): No visible indications of inflammation were observed
- peracute or acute effect on health and behavior ([1]; single intraperitoneal dose of 25 mg/kg): does not cause any peracute or acute effect on the health and behavior of mice
- diameter (mm) of the inhibition zone ([2]; C. freundii, disc ~50 μg MP): 22 mm
- sensitive strains / strains tested (inhibition zones larger or equal 20 mm) ([2]; Citrobacter freundii, 50 μg disc): 4/4
- diameter (mm) of the inhibition zone [3]: 24 mm
- MIC ([4]; N. meningitidis IR1072, 20 to 24 hours (Table 5)): 0.1 µg/mL
- MIC ([4]; Neisseria meningitidis (Table 4)): < 0.1 µg/mL
- Minimal bactericidal concentration (MBC) [5]: > 13
- sensitive strains / strains tested (inhibition zones larger or equal 20 mm) [6]: 1/1
- Minimal bactericidal concentration (MBC) [7]: 6.4
- diameter (mm) of the inhibition zone [8]: 36 mm
- spontaneous resistance [9]: did not produce spontaneous resistant mutants
- diameter (mm) of the inhibition zone [10]: -
- spontaneous resistance [11]: did not produce spontaneous resistant mutants
- diameter (mm) of the inhibition zone ([12]; P. mirabilis, disc ~50 μg MP): 21 mm
- sensitive strains / strains tested (inhibition zones larger or equal 20 mm) ([12]; Proteus mirabilis, 50 μg disc): 2/2
- diameter (mm) of the inhibition zone ([13]; K. pneumoniae, disc ~50 μg MP): 22 mm
- sensitive strains / strains tested (inhibition zones larger or equal 20 mm) ([13]; Klebsiella pneumoniae, 50 μg disc): 9/13
- cytotoxic and/or morphological changes [14]: No visible cytotoxic and/or morphological changes were observed
- sensitivity [15]: resistant
- MIC ([16]; B. subtilis 3G18, 20 to 24 hours (Table 5)): 0.2 µg/mL
- MIC ([16]; Bacillus subtilis (Table 4)): < 0.1 µg/mL
- diameter (mm) of the inhibition zone ([17]; S. aureus, disc ~50 μg MP): 22 mm
- sensitive strains / strains tested (inhibition zones larger or equal 20 mm) ([17]; Staphylococcus aureus, 50 μg disc): 9/9
- sensitive strains / strains tested (inhibition zones larger or equal 20 mm) [18]: 1/1
